Data reported in patent publication EP3360866B1, “[…]” (Alfred E. Tiefenbacher (GmbH & Co. KG), priority 2017, dated 2018).

Legend:
[1] = esterase cleavage / half-life in human blood plasma; assay type: in vitro ADME; conditions: for prodrug cleaved (esterase cleavage): within 4 hours
Procedure: (§1) Almost 100 % esterase cleavage was found in rat blood plasma after 1 h, whereas about 70 % of the prodrug was cleaved within 4 hours in human blood plasma.
(§2) The half-life of Benzoyloxy(methoxy)carbonyl-Nphenethyl-Mirabegron in rat blood plasma and in human blood plasma was less than 0.5 h. Almost 100 % esterase cleavage was found in rat blood plasma after 1 h, whereas almost 100 % of the prodrug was cleaved within 4 hours in human blood plasma.

[2] = esterase cleavage / half-life in rat blood plasma; assay type: in vitro ADME; conditions: for esterase cleavage: after 1 h
Procedure: as §1, §2

[3] = oral administration to rats, pharmacokinetics compared with Mirabegron; assay type: in vivo; conditions: oral administration to Sprague Dawley rats, compared to the parent compound Mirabegron

Row | Structure (SMILES) | half-life [1] | prodrug cleaved (esterase cleavage) [1] | half-life [2] | esterase cleavage [2] [%] | Cmax [3] | Tmax [3]
1 | CC(OC(=O)C(C)C)OC(=O)N(CCc1ccc(NC(=O)Cc2csc(N)n2)cc1)C[C@H](O)c1ccccc1 (stereo partly shown) [Enacarbil-Nphenethyl-Mirabegron] | less than 2.5 h | about 70% | less than 0.5 h | ~100 | higher | earlier
2 | Nc1nc(CC(=O)Nc2ccc(CCN(C[C@H](O)c3ccccc3)C(=O)OCOC(=O)c3ccccc3)cc2)cs1 [Benzoyloxy(methoxy)carbonyl-Nphenethyl-Mirabegron] | less than 0.5 h | ~100% | less than 0.5 h | ~100 | – | –
